Data as given in US8802638B1, “Flavonoid treatment of glycogen synthase kinase-based disease” (University of South Florida, priority 2007, dated 2014).

Assays:
[1] = system: primary neuronal cells derived from Tg2576 mice; assay: APP proteolysis (Aβ ELISA, IP, APP CTF Western blot) in Tg2576 mouse-derived primary neuronal cells; assay type: cell-based; details: 12 hrs
Method: (§1) Cultured cells or mouse brain were lysed in ice-cold lysis buffer described above, and an aliquot corresponding to 50 μg of total protein was electrophoretically separated using 12% Tris-HCl or 16.5% Tris-tricine gels. Electrophoresed proteins were then transferred to PVDF membranes, washed in dH2O, and blocked for 1 hr at ambient temperature in Tris-buffered saline (TBS; Bio-Rad) containing 5% (w/v) non-fat dry milk. After blocking, membranes were hybridized for 1 hr at ambient temperature with various primary antibodies. Membranes were then washed 3× for 5 min each in dH2O and incubated for 1 hr at ambient temperature with the appropriate HRP-conjugated secondary antibody (1:1,000). Antibodies were obtained against the amino-terminus and carboxyl-terminus of PS1 (Chemicon, Temecula, Calif.), amino-terminus and carboxyl-terminus of APP (22C11), actin (Roche, Basel, Switzerland), Aβ (6E10, 48G) (Signet Laboratories, Dedham, Mass.), phosphor-GSK3α (ser^21, clone BK202) (Upstate, Lake Placid, N.Y.), phospho-GSK3α/β (pTyr^279/216) (Sigma), phospho-GSK-3β (Ser^9) (Sigma) and total GSK-3α/β (Sigma). All antibodies were diluted in TBS containing 5% (w/v) of non-fat dry milk. […] Densitometric analysis was done as previously described using a FluorS Multiimager with Quantity One™ software (39). […] Antibodies used for Western blot included the APP-carboxyl-terminal antibody (1:50)), amino-terminal APP antibody (clone 22C11), or 6E10 (1:1,000), or actin antibody (1:1,500; as an internal reference control). γ-secretase activity was quantified in cell lysates using available kits based on secretase-specific peptides conjugated to fluorogenic reporter molecules.
SweAPP N2a cells and primary neuronal cells derived from Tg2576 mice were treated with varying doses of luteolin to examine luteolin's effect on APP proteolysis. Cellular extracts were collected and analyzed using immunoprecipitation (IP), Western blot, and ELISA. […] SweAPP N2a and primary Tg2576-derived neuronal cells CTF profiles were analyzed following luteolin treatment to determine at which level luteolin impacts amyloid processing.

PS1 = assay: Western blot of PS1 C-terminal fragment phosphorylation in SweAPP N2a cells; assay type: cell-based, murine
Method: Cultured cells or mouse brain were lysed in ice-cold lysis buffer described above, and an aliquot corresponding to 50 μg of total protein was electrophoretically separated using 12% Tris-HCl or 16.5% Tris-tricine gels. Electrophoresed proteins were then transferred to PVDF membranes, washed in dH2O, and blocked for 1 hr at ambient temperature in Tris-buffered saline (TBS; Bio-Rad) containing 5% (w/v) non-fat dry milk. After blocking, membranes were hybridized for 1 hr at ambient temperature with various primary antibodies. Membranes were then washed 3× for 5 min each in dH2O and incubated for 1 hr at ambient temperature with the appropriate HRP-conjugated secondary antibody (1:1,000). All antibodies were diluted in TBS containing 5% (w/v) of non-fat dry milk. Blots were developed using the luminol reagent (Pierce Biotechnology). Densitometric analysis was done as previously described using a FluorS Multiimager with Quantity One™ software. Immunoprecipitation was performed for detection of sAPP-α, sAPP-β and Aβ by incubating 200 μg of total protein of each sample with various sequential combinations of 6E10 (1:100) and/or 22C11 (1:100) antibodies overnight with gentle rocking at 4° C., and 10 μL of 50% protein A-Sepharose beads were then added to the sample (1:10; Sigma) prior to gentle rocking for an additional 4 hrs at 4° C. Following washes with 1× cell lysis buffer, samples were subjected to Western blot as described above. Antibodies used for Western blot included the APP-carboxyl-terminal antibody (1:50)), amino-terminal APP antibody (clone 22C11), or 6E10 (1:1,000), or actin antibody (1:1,500; as an internal reference control). γ-secretase activity was quantified in cell lysates using available kits (R&D Systems, Minneapolis, Minn.), based on secretase-specific peptides conjugated to fluorogenic reporter molecules.
The two bands of highest molecular weight, approximately 20 kD and 18 kD in size, represent phosphorylated PS1 CTFs with a smaller 16 kD band representing the more common CTF product indicative of PS1 endoproteolytic cleavage.
To confirm that the 20 kD and 18 kD bands were phosphorylated PS1 isoforms, SweAPP N2a cells were treated with luteolin (20 μM) prior to lysis and cell lysates incubated with calf intestine alkaline phosphatase (CIAP) (Fermentas, Hanover, Md.), to dephosphorylate any potential phosphorylated proteins, to eliminate skewing of electrophorectic mobilities. Following 30 minutes of incubation, the 20 kD band is not evident in the CIAP treated lysates, seen in FIGS. 21(A) through 22, and the 18 kD band reduced while endogenous CTF, 16 kD, appears to accumulate. When compared to lysates incubated with only reaction buffer, phosphorylated residues decrease in a time dependent manner, shown by the 20 kD CTF:16 kD CTF. […] Luteolin affects PS1 phosphorylation and may indicate a means by which γ-secretase activity may be regulated.
To determine if this phenomenon was specifically attributable to luteolin treatment or more generally in regards to GSK-3 inhibition, SweAPP N2a cells were treated with a range of doses of the GSK-3 inhibitor SB-415286 (BIOMOL®, Plymouth Meeting, Pa.). […] FIG. 24(B). GSK-3α and β was successfully knocked-down (>70%, data not shown) with siRNA in SweAPP N2a cells, substantiating the role of GSK-3α in this luteolin-mediated PS1 processing. […]

GSK-3α/β = GSK-3α/β (Mus musculus, UniProt Q2NL51); assay: Western blot of phosphorylated GSK-3α/β forms in SweAPP N2a cells; assay type: cell-based, murine; set-up: endogenous in cells; host or cells: SweAPP N2a cells; details: 20 μM
Method: as §1, with “(1:1,000).” for “(1:1,000). Antibodies were obtained against the amino-terminus and carboxyl-terminus of PS1 (Chemicon, Temecula, Calif.), amino-terminus and carboxyl-terminus of APP (22C11), actin (Roche, Basel, Switzerland), Aβ (6E10, 48G) (Signet Laboratories, Dedham, Mass.), phosphor-GSK3α (ser^21, clone BK202) (Upstate, Lake Placid, N.Y.), phospho-GSK3α/β (pTyr^279/216) (Sigma), phospho-GSK-3β (Ser^9) (Sigma) and total GSK-3α/β (Sigma). All antibodies were diluted in TBS containing 5% (w/v) of non-fat dry milk.”, “molecules. […]” for “molecules.”

Sequence of GSK-3α/β (Q2NL51 2-490): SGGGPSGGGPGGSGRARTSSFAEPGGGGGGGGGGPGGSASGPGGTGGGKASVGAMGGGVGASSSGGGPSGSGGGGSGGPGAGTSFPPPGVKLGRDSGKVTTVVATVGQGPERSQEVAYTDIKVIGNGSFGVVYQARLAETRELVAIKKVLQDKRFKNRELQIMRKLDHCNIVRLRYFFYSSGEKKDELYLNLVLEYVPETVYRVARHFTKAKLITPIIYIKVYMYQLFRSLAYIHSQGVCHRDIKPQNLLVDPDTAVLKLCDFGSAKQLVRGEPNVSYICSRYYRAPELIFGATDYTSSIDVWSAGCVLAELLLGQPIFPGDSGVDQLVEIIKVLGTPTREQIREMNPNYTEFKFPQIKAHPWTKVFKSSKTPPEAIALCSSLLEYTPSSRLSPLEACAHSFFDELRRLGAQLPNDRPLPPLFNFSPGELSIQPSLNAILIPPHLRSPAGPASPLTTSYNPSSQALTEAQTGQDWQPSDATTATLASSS

O=c1cc(-c2ccc(O)c(O)c2)oc2cc(O)cc(O)c12 [luteolin]
accumulation of both α and β CTFs (increase over control) ([1]; dose dependent, Western blot densitometry): 2-3 fold | Aβ1-40, 42 peptide generation abrogated ([1]; luteolin 20 μM): > 70% | Aβ1-40, 42 peptide generation abrogated ([1]; luteolin 40 μM): > 85% | PS1 CTF phosphorylation (phospho-PS1 CTF to PS1 CTF ratio) (PS1): PS1 CTF phosphorylation increases | full-length PS1 or PS1 NTF protein levels (PS1; range of doses, 4 hrs): no significant effect | levels of serine 21-phosphorylated, inactive GSK-3α isoforms (GSK-3α/β; SweAPP N2a cells): increased the levels | levels of tyrosine 279 phosphorylated active GSK-3α isoforms (GSK-3α/β; through 3 hrs (FIGS. 13 and 17)): concurrently decreased in time-dependent manner
